In US6465686B2, “Halogenated 2-amino-5,6 heptenoic acid derivatives useful as nitric oxide synthase inhibitors” (Pharmacia Corporation, priority 2000, dated 2002):
Structures can show the parent of a compound that is named as a salt.

Key:
[1] = target: T1, human neuronal constitutive NOS (hncNOS) (Homo sapiens, UniProt P29475); assay: Citrulline assay for nitric oxide synthase, hncNOS; assay type: biochemical; settings: recombinant enzyme, conversion of L-[2,3-3H]-arginine to citrulline, 30 μM L-arginine, calmodulin included
T1 construct: made in house; host or cells: Sf9 insect cells (baculovirus vector)
From the text: (§1) Citrulline Assay for Nitric Oxide Synthase
(§2) Nitric oxide synthase (NOS) activity can be measured by monitoring the conversion of L-[2,3-^3H]-arginine to L-[2,3-^3H]-citrulline (Bredt and Snyder, Proc. Natl. Acad. Sci. U.S.A., 87, 682-685, 1990 and Moore et al, J. Med. Chem., 39, 669-672, 1996). Human inducible NOS (hiNOS), human endothelial constitutive NOS (hecNOS) and human neuronal constitutive NOS (hncNOS) are each cloned from RNA extracted from human tissue. The cDNA for human inducible NOS (hiNOS) is isolated from a λcDNA library made from RNA extracted from a colon sample from a patient with ulcerative colitis. The cDNA for human endothelial constitutive NOS (hecNOS) is isolated from a λcDNA library made from RNA extracted from human umbilical vein endothelial cells (HUVEC) and the cDNA for human neuronal constitutive NOS (hncNOS) is isolated from a λcDNA library made from RNA extracted from human cerebellum obtained from a cadaver. The recombinant enzymes are expressed in Sf9 insect cells using a baculovirus vector (Rodi et al, in The Biology of Nitric Oxide, Pt. 4: Enzymology, Biochemistry and Immunology: Moncada, S., Feelisch, M., Busse, R., Higgs, E., Eds.; Portland Press Ltd.: London, 1995; pp 447-450). Enzyme activity is isolated from soluble cell extracts and partially purified by DEAE-Sepharose chromatography. To measure NOS activity, 10 μL of enzyme is added to 40 μL of 50 mM Tris (pH 7.6) in the presence or absence of test compounds and the reaction initiated by the addition of 50 μL of a reaction mixture containing 50 mM Tris (pH 7.6), 2.0 mg/mL bovine serum albumin, 2.0 mM DTT, 4.0 mM CaCl2, 20 μM FAD, 100 μM tetrahydrobiopterin, 0.4 mM NADPH and 60 μM L-arginine containing 0.9 μCi of L-[2,3-^3H]-arginine. The final concentration of L-arginine in the assay is 30 μM. For hecNOS or hncNOS, calmodulin is included at a final concentration of […]. Following incubation at 37° C. for 15 minutes, the reaction is terminated by addition of 400 μL of a suspension (1 part resin, 3 parts buffer) of Dowex 50W X-8 cation exchange resin in a stop buffer containing 10 mM EGTA, 100 mM HEPES, pH 5.5 and 1 mM L-citrulline. After mixing the resin is allowed to settle and L-[2,3-^3H]-Citrulline formation is determined by counting aliquots of the supernatant with a liquid scintillation counter. Results are reported in Table I as the IC50 values of compounds for hiNOS, hecNOS and hncNOS.

[2] = target: T2, Human inducible NOS (hiNOS) (Homo sapiens, UniProt P35228); assay: Citrulline assay for nitric oxide synthase, hiNOS; assay type: biochemical; settings: recombinant enzyme, conversion of L-[2,3-3H]-arginine to citrulline, 30 μM L-arginine
T2 construct: made in house; host or cells: Sf9 insect cells (baculovirus vector)
From the text: as §1, §2

[3] = target: T3, human endothelial constitutive NOS (hecNOS) (Homo sapiens, UniProt P29474); assay: Citrulline assay for nitric oxide synthase, hecNOS; assay type: biochemical; settings: recombinant enzyme, conversion of L-[2,3-3H]-arginine to citrulline, 30 μM L-arginine, calmodulin included
T3 construct: made in house; host or cells: Sf9 insect cells (baculovirus vector)
From the text: as §1, §2

IC50 [1] [µM] | IC50 [2] [µM] | IC50 [3] [µM] | melting point [°C] | Compound
21 | 2.2 | 195 | – | CC(=N)NCC(F)=CCC[C@H](N)C(=O)O (mixture of isomers) [Example 2, (2S,5E/Z)-2-amino-6-fluoro-7-[(1-iminoethyl)amino]-5-heptenoic acid, dihydrochloride]
3.6 | 0.36 | 68 | – | CC(=N)NC/C(F)=C\CC[C@H](N)C(=O)O [Example 1, (2S,5E)-2-amino-6-fluoro-7-[(1-iminoethyl)amino]-5-heptenoic acid, dihydrochloride, monohydrate]
105 | 12 | 303 | – | CC(=N)NC/C(F)=C/CC[C@H](N)C(=O)O [Example 3, (2S,5Z)-2-amino-6-fluoro-7-[(1-iminoethyl)amino]-5-heptenoic acid, dihydrochloride]
65 | 8.6 | 112 | – | CC(=N)NC/C(F)=C/CC[C@H](N)C(=O)O [Example 4, (2S,5Z)-2-amino-6-fluoro-7-[(1-iminoethyl)amino]-5-heptenoic acid, trihydrochloride, dihydrate]
29 | < 5 | 279 | – | CC(=N)NC/C(F)=C\CC[C@@H](N)C(=O)O [Example 5, (2R,5E)-2-amino-6-fluoro-7-[(1-iminoethyl)amino]-5-heptenoic acid, dihydrochloride, monohydrate]
– | – | – | 198 to 200 | CC(=NO)NC/C(F)=C\CC[C@H](N)C(=O)O [Example 10, (2S,5E)-2-amino-6-fluoro-7-[(1-hydroximinoethyl)amino]-5-heptenoic acid]
